The values that follow come from US11992490B2, “Use of JAK1 inhibitors for the treatment of cutaneous lupus erythematosus and Lichen planus (LP)” (Incyte Corporation, priority 2019, dated 2024).

Molecules are shown by their SMILES.

In assay [1] the target is human JAK1 (a.a. 837-1142) (Homo sapiens, UniProt P23458). Briefly: In vitro JAK kinase assay (HTRF), JAK1. Format: biochemical. The following applies: 1 mM ATP. (Time-resolved FRET reads energy transfer from a long-lived donor to a nearby acceptor.)
For assay [2], the target named is human JAK2 (a.a. 828-1132) (Homo sapiens (Human), UniProt O60674). Briefly: In vitro JAK kinase assay (HTRF), JAK2. The assay is classed as biochemical. The conditions noted are these: JAK2/JAK1 IC50 ratio, 1 mM ATP.
Chain of human JAK2 (a.a. 828-1132) (O60674 828-1132): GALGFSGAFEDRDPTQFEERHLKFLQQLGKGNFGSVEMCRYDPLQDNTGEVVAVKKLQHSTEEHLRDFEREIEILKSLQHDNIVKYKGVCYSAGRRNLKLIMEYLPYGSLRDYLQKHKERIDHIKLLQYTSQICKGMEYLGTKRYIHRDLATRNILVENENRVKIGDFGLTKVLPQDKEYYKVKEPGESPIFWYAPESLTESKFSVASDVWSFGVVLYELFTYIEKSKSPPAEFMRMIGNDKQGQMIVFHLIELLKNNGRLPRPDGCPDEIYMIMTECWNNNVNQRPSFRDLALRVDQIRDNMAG

One may read the IC50 as the concentration at which inhibition is half-maximal. For `N#CCC(C1CCN(c2cccc(Cl)n2)C1)n1cc(-c2ncnc3[nH]ccc23)cn1` (single isomer, unassigned) [Compound 6, 3-[1-(6-chloropyridin-2-yl)pyrrolidin-3-yl]-3-[4-(7H-pyrrolo[2,3-d]pyrimidin-4-yl)-1H-pyrazol-1-yl]propanenitrile], the IC50 in assay [1] was under 10 nM. Further, the JAK2/JAK1 in assay [2] is over 10.

`N#CCC1(n2cc(-c3ncnc4[nH]ccc34)cn2)CN(C2CCN(C(=O)Nc3ccc(F)cc3C(F)(F)F)CC2)C1` [Compound 2, 4-{3-(Cyanomethyl)-3-[4-(7H-pyrrolo[2,3-d]pyrimidin-4-yl)-1H-pyrazol-1-yl]azetidin-1-yl}-N-[4-fluoro-2-(trifluoromethyl)phenyl]piperidine-1-carboxamide] yielded an IC50 in assay [1] of under 10 nM. Besides, the JAK2/JAK1 in assay [2] is listed as over 10.

The molecule `N#CCC1(n2cc(-c3ncnc4[nH]ccc34)cn2)CN(C2CCN(C(=O)c3ccnc(C(F)(F)F)n3)CC2)C1` [Compound 3, [3-[4-(7H-pyrrolo[2,3-d]pyrimidin-4-yl)-1H-pyrazol-1-yl]-1-(1-{[2-(trifluoromethyl)pyrimidin-4-yl]carbonyl}piperidin-4-yl)azetidin-3-yl]acetonitrile] had an IC50 in assay [1] of under 10 nM. Moreover, the JAK2/JAK1 in assay [2] is reported as over 10.

Consider `C[C@@H](O)c1nc2cnc3ccsc3c2n1[C@H]1CC[C@H](CC#N)OC1` [Compound 5, ((2R,5S)-5-{2-[(1R)-1-hydroxyethyl]-1H-imidazo[4,5-d]thieno[3,2-b]pyridin-1-yl}tetrahydro-2H-pyran-2-yl)acetonitrile], for which the IC50 in assay [1] was under 100 nM. In addition, the JAK2/JAK1 in assay [2] is over 10.

On to `N#CCC(C1CCN(c2nc3cccnc3o2)C1)n1cc(-c2ncnc3[nH]ccc23)cn1` (stereo not drawn) [Compound 7, 3-(1-[1,3]oxazolo[5,4-b]pyridin-2-ylpyrrolidin-3-yl)-3-[4-(7H-pyrrolo[2,3-d]pyrimidin-4-yl)-1H-pyrazol-1-yl]propanenitrile], for which the IC50 in assay [1] is under 10 nM. Moreover, the JAK2/JAK1 in assay [2] is on record as over 10.

`N#CCC(CN1CCN(C(=O)c2ccc(C#N)cc2F)CC1)n1cc(-c2ncnc3[nH]ccc23)cn1` (stereo not drawn) [Compound 8, 4-[(4-{3-cyano-2-[4-(7H-pyrrolo[2,3-d]pyrimidin-4-yl)-1H-pyrazol-1-yl]propyl}piperazin-1-yl)carbonyl]-3-fluorobenzonitrile] registered an IC50 in assay [1] of under 10 nM. The JAK2/JAK1 in assay [2] is on record as over 10.

`N#CCC(CN1CCN(C(=O)c2ccc(C#N)cc2F)CC1)n1ccc(-c2ncnc3[nH]ccc23)c1` (stereo not drawn) [Compound 9, 4-[(4-{3-cyano-2-[3-(7H-pyrrolo[2,3-d]pyrimidin-4-yl)-1H-pyrrol-1-yl]propyl}piperazin-1-yl)carbonyl]-3-fluorobenzonitrile] gave an IC50 in assay [1] of under 10 nM. Further, the JAK2/JAK1 in assay [2] is listed as over 10.

Molecule `N#CC[C@]1(n2cc(-c3ncnc4[nH]ccc34)cn2)C[C@H](N2CCN(C(=O)c3ccnc(C(F)(F)F)n3)CC2)C1` [Compound 10, [trans-1-[4-(7H-pyrrolo[2,3-d]pyrimidin-4-yl)-1H-pyrazol-1-yl]-3-(4-{[2-(trifluoromethyl)pyrimidin-4-yl]carbonyl}piperazin-1-yl)cyclobutyl]acetonitrile] registered an IC50 in assay [1] of under 10 nM. The JAK2/JAK1 in assay [2] is given as over 10.

In the case of `N#CC[C@]1(n2cc(-c3ncnc4[nH]ccc34)cn2)C[C@H](N2CCC(Oc3cc(CN4CC(O)C4)cc(C(F)(F)F)n3)CC2)C1` [Compound 11, {trans-3-(4-{[4-[(3-hydroxyazetidin-1-yl)methyl]-6-(trifluoromethyl)pyridin-2-yl]oxy}piperidin-1-yl)-1-[4-(7H-pyrrolo[2,3-d]pyrimidin-4-yl)-1H-pyrazol-1-yl]cyclobutyl}acetonitrile], the IC50 in assay [1] is under 10 nM. In addition, in assay [2], the JAK2/JAK1 is over 10.

As to `N#CC[C@]1(n2cc(-c3ncnc4[nH]ccc34)cn2)C[C@H](N2CCC(Oc3cc(CN4CCC[C@H]4CO)cc(C(F)(F)F)n3)CC2)C1` [Compound 12, {trans-3-(4-{[4-{[(2S)-2-(hydroxymethyl)pyrrolidin-1-yl]methyl}-6-(trifluoromethyl)pyridin-2-yl]oxy}piperidin-1-yl)-1-[4-(7H-pyrrolo[2,3-d]pyrimidin-4-yl)-1H-pyrazol-1-yl]cyclobutyl}acetonitrile], in assay [1], the half-maximal inhibitory concentration (IC50) is under 10 nM. In assay [2], the JAK2/JAK1 is given as over 10.

With `N#CC[C@]1(n2cc(-c3ncnc4[nH]ccc34)cn2)C[C@H](N2CCC(Oc3cc(CN4CCC[C@@H]4CO)cc(C(F)(F)F)n3)CC2)C1` [Compound 13, {trans-3-(4-{[4-{[(2R)-2-(hydroxymethyl)pyrrolidin-1-yl]methyl}-6-(trifluoromethyl)pyridin-2-yl]oxy}piperidin-1-yl)-1-[4-(7H-pyrrolo[2,3-d]pyrimidin-4-yl)-1H-pyrazol-1-yl]cyclobutyl}acetonitrile], in assay [1], the IC50 was under 10 nM. In assay [2], the JAK2/JAK1 is listed as over 10.

The molecule `C[C@H](NC(=O)c1cc(F)c(N2CC(CC#N)(n3cc(-c4ncnc5[nH]ccc45)cn3)C2)cc1F)C(F)(F)F` [Compound 16, 4-{3-(cyanomethyl)-3-[4-(7H-pyrrolo[2,3-d]pyrimidin-4-yl)-1H-pyrazol-1-yl]azetidin-1-yl}-2,5-difluoro-N-[(1S)-2,2,2-trifluoro-1-methylethyl]benzamide] returned an IC50 in assay [1] of under 10 nM. For the same molecule, the JAK2/JAK1 in assay [2] is over 10.

`N#CCC1(n2cc(-c3ncnc4[nH]ccc34)cn2)CN([C@H]2CC[C@@H](Oc3cc(CCO)nc(C(F)(F)F)n3)CC2)C1` [Compound 18, {1-(cis-4-{[6-(2-hydroxyethyl)-2-(trifluoromethyl)pyrimidin-4-yl]oxy}cyclohexyl)-3-[4-(7H-pyrrolo[2,3-d]pyrimidin-4-yl)-1H-pyrazol-1-yl]azetidin-3-yl}acetonitrile]: the IC50 in assay [1] is under 10 nM. Moreover, the JAK2/JAK1 in assay [2] was over 10.

`CCNCc1cc(O[C@H]2CC[C@@H](N3CC(CC#N)(n4cc(-c5ncnc6[nH]ccc56)cn4)C3)CC2)nc(C(F)(F)F)c1` [Compound 19, {1-(cis-4-{[4-[(ethylamino)methyl]-6-(trifluoromethyl)pyridin-2-yl]oxy}cyclohexyl)-3-[4-(7H-pyrrolo[2,3-d]pyrimidin-4-yl)-1H-pyrazol-1-yl]azetidin-3-yl}acetonitrile] showed an IC50 in assay [1] of under 10 nM. Also, the JAK2/JAK1 in assay [2] is reported as over 10.

The molecule `CC(C)(O)c1cc(O[C@H]2CC[C@@H](N3CC(CC#N)(n4cc(-c5ncnc6[nH]ccc56)cn4)C3)CC2)nc(C(F)(F)F)c1` [Compound 20, {1-(cis-4-{[4-(1-hydroxy-1-methylethyl)-6-(trifluoromethyl)pyridin-2-yl]oxy}cyclohexyl)-3-[4-(7H-pyrrolo[2,3-d]pyrimidin-4-yl)-1H-pyrazol-1-yl]azetidin-3-yl}acetonitrile] had an IC50 in assay [1] of under 10 nM. For the same molecule, the JAK2/JAK1 in assay [2] is recorded as over 10.

Take `N#CCC1(n2cc(-c3ncnc4[nH]ccc34)cn2)CN([C@H]2CC[C@@H](Oc3cc(CN4CC[C@@H](O)C4)cc(C(F)(F)F)n3)CC2)C1` [Compound 21, {1-(cis-4-{[4-{[(3R)-3-hydroxypyrrolidin-1-yl]methyl}-6-(trifluoromethyl)pyridin-2-yl]oxy}cyclohexyl)-3-[4-(7H-pyrrolo[2,3-d]pyrimidin-4-yl)-1H-pyrazol-1-yl]azetidin-3-yl}acetonitrile]: the IC50 in assay [1] is under 10 nM. The JAK2/JAK1 in assay [2] is over 10.

The molecule `N#CCC1(n2cc(-c3ncnc4[nH]ccc34)cn2)CN([C@H]2CC[C@@H](Oc3cc(CN4CC[C@H](O)C4)cc(C(F)(F)F)n3)CC2)C1` [Compound 22, {1-(cis-4-{[4-{[(3S)-3-hydroxypyrrolidin-1-yl]methyl}-6-(trifluoromethyl)pyridin-2-yl]oxy}cyclohexyl)-3-[4-(7H-pyrrolo[2,3-d]pyrimidin-4-yl)-1H-pyrazol-1-yl]azetidin-3-yl}acetonitrile] yielded an IC50 in assay [1] of under 10 nM. Moreover, the JAK2/JAK1 in assay [2] was over 10.

`C[C@@H](CO)NCc1cc(OC2CCN([C@H]3C[C@](CC#N)(n4cc(-c5ncnc6[nH]ccc56)cn4)C3)CC2)nc(C(F)(F)F)c1` [Compound 23, {trans-3-(4-{[4-({[(1S)-2-hydroxy-1-methylethyl]amino}methyl)-6-(trifluoromethyl)pyridin-2-yl]oxy}piperidin-1-yl)-1-[4-(7H-pyrrolo[2,3-d]pyrimidin-4-yl)-1H-pyrazol-1-yl]cyclobutyl}acetonitrile] displayed an IC50 in assay [1] of under 10 nM. For the same molecule, the JAK2/JAK1 in assay [2] is over 10.

In assay [1], `C[C@@H](O)CNCc1cc(OC2CCN([C@H]3C[C@](CC#N)(n4cc(-c5ncnc6[nH]ccc56)cn4)C3)CC2)nc(C(F)(F)F)c1` [Compound 24, {trans-3-(4-{[4-({[(2R)-2-hydroxypropyl]amino}methyl)-6-(trifluoromethyl)pyridin-2-yl]oxy}piperidin-1-yl)-1-[4-(7H-pyrrolo[2,3-d]pyrimidin-4-yl)-1H-pyrazol-1-yl]cyclobutyl}acetonitrile] came in with an IC50 of under 10 nM. In addition, in assay [2], the JAK2/JAK1 was over 10.

`C[C@H](O)CNCc1cc(OC2CCN([C@H]3C[C@](CC#N)(n4cc(-c5ncnc6[nH]ccc56)cn4)C3)CC2)nc(C(F)(F)F)c1` [Compound 25, {trans-3-(4-{[4-({[(2S)-2-hydroxypropyl]amino}methyl)-6-(trifluoromethyl)pyridin-2-yl]oxy}piperidin-1-yl)-1-[4-(7H-pyrrolo[2,3-d]pyrimidin-4-yl)-1H-pyrazol-1-yl]cyclobutyl}acetonitrile] returned an IC50 in assay [1] of under 10 nM. Further, the JAK2/JAK1 in assay [2] is reported as over 10.

`N#CC[C@]1(n2cc(-c3ncnc4[nH]ccc34)cn2)C[C@H](N2CCC(Oc3cc(CCO)cc(C(F)(F)F)n3)CC2)C1` [Compound 26, {trans-3-(4-{[4-(2-hydroxyethyl)-6-(trifluoromethyl)pyridin-2-yl]oxy}piperidin-1-yl)-1-[4-(7H-pyrrolo[2,3-d]pyrimidin-4-yl)-1H-pyrazol-1-yl]cyclobutyl}acetonitrile] gave an IC50 in assay [1] of under 10 nM. Further, the JAK2/JAK1 in assay [2] is listed as over 10.
